Patent US9115169B2, “Method of treating tumors” (Lytix Biopharma AS, priority 2000, dated 2015)
Converted amounts (≈) assume the structure as drawn. *1 amine or outer side, *2 acyl side, *3 side chain or, on linkers, in order; H or OH if unused. Where a SMILES comes first, the peptide text is derived from it. The star is where a group is joined. Ethylenediamine = C(CN[*:2])N[*:1]; Cbz = O=C(OCc1ccccc1)*; OBn = c1ccc(CO*)cc1

Key:
[1] = test system: Escherichia coli ATCC 25922; conditions: ATCC 25922
[2] = test system: Staphylococcus aureus ATCC 25923; conditions: ATCC 25923
MRSA ATCC 33591 = conditions: ATCC 33591
Protocol: (§1) All strains were stored at −70° C. […] All assays were performed in duplicate.

MRSE ATCC 27626 = conditions: ATCC 27626
Protocol: as §1

[3] = test system: Escherichia coli ATCC 25922; conditions: ATCC 25922; remark: listed apart in the source
[4] = test system: Staphylococcus aureus ATCC 25923; conditions: ATCC 25923; remark: listed apart in the source

| SMILES | MIC E. coli [1] | MIC S. aureus [2] | MBC E. coli [3] | MBC S. aureus [4] | other results |
| --- | --- | --- | --- | --- | --- |
| C[C@H](N)C(=O)N[C@@H](CCCNC(=N)N)C(=O)OCc1ccc(-c2ccccc2)cc1 [AROBip] |  |  |  |  | Minimum inhibitory concentration E. coli [1]: 300 µg/mL (≈ 729 µM); Minimum inhibitory concentration S. aureus [2]: 100 µg/mL (≈ 243 µM); Minimum inhibitory concentration MRSA (MRSA ATCC 33591): 37.5 µg/mL (≈ 91.1 µM); Minimum inhibitory concentration MRSE (MRSE ATCC 27626): 25 µg/mL (≈ 60.8 µM) |
| N=C(N)NCCC[C@H](NC(=O)[C@@H](N)Cc1ccc(-c2ccccc2)cc1)C(=O)OCc1ccc(-c2ccccc2)cc1 [BipROBip] |  |  |  |  | Minimum inhibitory concentration E. coli [1]: 50 µg/mL (≈ 88.7 µM); Minimum inhibitory concentration S. aureus [2]: 5.0 µg/mL (≈ 8.87 µM); Minimum inhibitory concentration MRSA (MRSA ATCC 33591): 5.0 µg/mL (≈ 8.87 µM); Minimum inhibitory concentration MRSE (MRSE ATCC 27626): 5.0 µg/mL (≈ 8.87 µM) |
| N=C(N)NCCC[C@H](NC(=O)C1CCCCC1)C(=O)N[C@@H](Cc1c[nH]c2ccccc12)C(=O)OCc1ccccc1 [Chx RW OBz, Chx-Arg-Trp-OBzl] | 200 (>200) μg/ml | 75 (75) μg/ml | 200 (>200) μg/ml | 75 (75) μg/ml |  |
| COC(=O)[C@H](CCCNC(=N)N)NC(=O)[C@H](Cc1c[nH]c2ccccc12)NC(=O)C1CCCCC1 [Chx WR OMe, Chx-Trp-Arg-OMe] | >200 (>200) μg/ml | >200 (>200) μg/ml | >200 (>200) μg/ml | >200 (>200) μg/ml |  |
| N=C(N)NCCC[C@H](NC(=O)[C@@H](N)Cc1ccccc1)C(=O)OCc1ccc(-c2ccccc2)cc1 [FROBip] |  |  |  |  | Minimum inhibitory concentration E. coli [1]: 100 µg/mL (≈ 205 µM); Minimum inhibitory concentration S. aureus [2]: 12.5 µg/mL (≈ 25.6 µM); Minimum inhibitory concentration MRSA (MRSA ATCC 33591): 12.5 µg/mL (≈ 25.6 µM); Minimum inhibitory concentration MRSE (MRSE ATCC 27626): 5 µg/mL (≈ 10.3 µM) |
| N=C(N)NCCC[C@H](NC(=O)Cc1c[nH]c2ccccc12)C(=O)N[C@@H](Cc1c[nH]c2ccccc12)C(=O)NCCNC(=O)OCc1ccccc1 [Ind RW DaeZ, Ind-Arg-Trp-Dae-Z] | >200 (>200) μg/ml | 75 (75) μg/ml | >200 (>200) μg/ml | 75 (75) μg/ml |  |
| N=C(N)NCCC[C@H](NC(=O)Cc1c[nH]c2ccccc12)C(=O)N[C@@H](Cc1c[nH]c2ccccc12)C(=O)OCc1ccccc1 [Ind RW OBz, Ind-Arg-Trp-OBzl] | >200 (>200) μg/ml | 20 (20) μg/ml | >200 (>200) μg/ml | 20 (20) μg/ml |  |
| COC(=O)[C@H](CCCNC(=N)N)NC(=O)[C@H](Cc1c[nH]c2ccccc12)NC(=O)Cc1c[nH]c2ccccc12 [Ind WR OMe, Ind-Trp-Arg-OMe] | >200 (>200) μg/ml | >200 (>200) μg/ml | >200 (>200) μg/ml | >200 (>200) μg/ml |  |
| NCCCC[C@H](N)C(=O)N[C@@H](Cc1ccccc1)C(=O)OCc1ccccc1 [KF-Obzl] | >300 µg/mL | 300 µg/mL (≈ 782 µM) |  |  | MIC MRSA (MRSA ATCC 33591): 300 µg/mL (≈ 782 µM); MIC MRSE (MRSE ATCC 27626): 150 µg/mL (≈ 391 µM) |
| N=C(N)NCCC[C@H](NC(=O)[C@H](CCCNC(=N)N)NC(=O)[C@@H](N)CCCNC(=N)N)C(=O)N[C@@H](Cc1c[nH]c2ccccc12)C(=O)N[C@@H](Cc1c[nH]c2ccccc12)C(=O)N[C@@H](Cc1c[nH]c2ccccc12)C(N)=O [RRRWWW] (H-RRRWWW-NH2) |  |  | 20 µg/mL (≈ 19.2 µM) |  |  |
| N=C(N)NCCC[C@H](N)C(=O)N[C@@H](Cc1c[nH]c2ccccc12)C(=O)NCCNC(=O)OCc1ccccc1 [RW DaeZ, H-Arg-Trp-Dae-Z] (H-Arg-Trp-{Ethylenediamine-Cbz}) | >200 (>200) μg/ml | 50 µg/mL (≈ 93.2 µM) | >200 (>200) μg/ml | 75 µg/mL (≈ 140 µM) |  |
| N=C(N)NCCC[C@H](NC(=O)[C@H](Cc1c[nH]c2ccccc12)NC(=O)[C@@H](N)CCCNC(=N)N)C(=O)N[C@@H](Cc1c[nH]c2ccccc12)C(=O)OCc1ccccc1 [RWRW-OBzl] (H-RWRW-OBn) | 100 µg/mL (≈ 126 µM) |  |  |  | MIC MRSE (MRSE ATCC 27626): 2.5 µg/mL (≈ 3.15 µM) |
| N=C(N)NCCC[C@H](NC(=O)[C@H](Cc1c[nH]c2ccccc12)NC(=O)[C@H](CCCNC(=N)N)NC(=O)[C@H](Cc1c[nH]c2ccccc12)NC(=O)[C@@H](N)CCCNC(=N)N)C(=O)N[C@@H](Cc1c[nH]c2ccccc12)C(N)=O [RWRWRW] (H-RWRWRW-NH2) |  |  | 20 µg/mL (≈ 19.2 µM) | 10 µg/mL (≈ 9.58 µM) |  |
| N=C(N)NCCC[C@H](NC(=O)[C@H](Cc1c[nH]c2ccccc12)NC(=O)[C@H](CCCNC(=N)N)NC(=O)[C@H](Cc1c[nH]c2ccccc12)NC(=O)[C@@H](N)CCCNC(=N)N)C(N)=O [RWRWR] (H-RWRWR-NH2) |  | 20 µg/mL (≈ 23.3 µM) | 100 µg/mL (≈ 117 µM) | 20 µg/mL (≈ 23.3 µM) |  |
| N=C(N)NCCC[C@H](NC(=O)[C@H](Cc1c[nH]c2ccccc12)NC(=O)[C@@H](N)CCCNC(=N)N)C(N)=O [RWR] (H-Arg-Trp-Arg-NH2; N-terminus assumed) | >100 µg/mL | >100 µg/mL | >100 µg/mL | >100 µg/mL |  |
